Among the data in US11252962B2, “Cyclopropylpyridyl group-containing benzimidazole compound or salt thereof, agricultural and horticultural insecticide comprising the compound or the salt, and method for using the insecticide” (NIHON NOHYAKU CO., LTD., priority 2017, dated 2022) are mortality, pest or weed control and inhibition values, retold here.

As a reminder, the mortality is the share of the test organisms that died. One may read the inhibition as the share of the control response that was lost under treatment.

One assay relates to Laodelphax striatellus. In words: Insecticidal test on Laodelphax striatellus. It is filed as in vivo. As to conditions: 192 h, rice seedlings dipped 30 seconds, 3rd-instar larvae, 8 days after inoculation, read-out: insecticidal efficacy (corrected mortality rate), activity level. Here is the method: Insecticidal Test on Laodelphax striatellus
Rice plant seedlings (variety: Nihonbare) were dipped in the agrochemical dispersions for 30 seconds. After air-dried, each seedling was put into a separate glass test tube and inoculated with ten 3rd-instar larvae of L. striatellus, and then the glass test tubes were capped with cotton plugs. At 8 days after the inoculation, the numbers of surviving larvae and dead larvae were counted, the corrected mortality rate was calculated according to the formula shown below, and the insecticidal efficacy was evaluated according to the criteria shown below. Corrected mortality rate (%)=100×(Survival rate in a non-treatment plot−Survival rate in a treatment plot)/Survival rate in a non-treatment plot [Math. 2] Corrected Mortality Rate A: the corrected mortality rate is 100%.

A further assay deals with Plutella xylostella. In words: Insecticidal test on Plutella xylostella. It is filed as in vivo. As to conditions: 144 h, Chinese cabbage seedlings with laid eggs dipped about 30 seconds, 6 days after dip treatment, 25° C., read-out: insecticidal efficacy (corrected mortality rate), activity level. Here is the method: Insecticidal Test on Plutella xylostella
Adults of P. xylostella were released onto Chinese cabbage seedlings and allowed to lay eggs thereon. […] After air-dried, the seedlings were kept in a thermostatic chamber at 25° C. […] This test was conducted in triplicate using 10 adults of P. xylostella per plot. Corrected mortality rate (%)=100×(Number of hatched larvae in a non-treatment plot−Number of hatched larvae in a treatment plot)/Number of hatched larvae in a non-treatment plot [Math. 3]

Another assay concerns Myzus persicae. In words: Test for control efficacy on Myzus persicae. As to conditions: 144 h, foliar application to potted Chinese cabbage, 6 days after application, read-out: control efficacy (control rate), activity level. Type of assay: in vivo. The source says: Test for Control Efficacy on Myzus persicae Chinese cabbage plants were planted in plastic pots (diameter: 8 cm, height: 8 cm), Green peach aphids (M. persicae) were propagated on the plants, and the number of surviving Green peach aphids in each pot was counted. […] The agrochemical dispersions were applied to the foliage of the potted Chinese cabbage plants. After the plants were air-dried, the pots were kept in a greenhouse. At 6 days after the foliar application, the number of surviving Green peach aphids on the Chinese cabbage plant in each pot was counted, the control rate was calculated according to the formula shown below, and the control efficacy was evaluated according to the criteria shown below. Control rate=100−{(T×Ca)/(Ta×C)}×100 [Math. 1] Ta: the number of survivors before the foliar application in a treatment plot T: the number of survivors after the foliar application in a treatment plot Ca: the number of survivors before the foliar application in a non-treatment plot C: the number of survivors after the foliar application in a non-treatment plot Criteria A: the control rate is 100%. […] C: the control rate is 80 to 89%.

Another assay relates to Ctenocephalides felis. In words: Parasiticidal test on Ctenocephalides felis. Type of assay: in vivo. The settings on record: 50 ppm in bovine blood, adults, artificial feeding system 35° C., 24 hours after treatment, read-out: corrected mortality rate.
A further assay relates to Haemonchus contortus. Kind of assay: Parasiticidal test on Haemonchus contortus (larval motility). As to conditions: 1st-instar larvae, 96-well plates, 27° C., 96 hours, read-out: percent inhibition in motility. The source says: Parasiticidal Test on Haemonchus contortus
Eggs of H. contortus were collected from feces of a goat and hatched in water. […] Percent inhibition in motility (%)=100×(Average motility in negative control wells−Average motility in treated wells)/Average motility in negative control wells [Math. 5]

For a further assay, the system named is Rhipicephalus sanguineus. In words: Parasiticidal test on Rhipicephalus sanguineus. It is filed as in vivo. The settings on record: treated filter paper, nymphs, 27° C., 48 hours after treatment, read-out: corrected mortality rate. Here is the method: Parasiticidal Test on Rhipicephalus sanguineus
The diluted formulations were applied dropwise onto filter paper pieces placed in separate vials. The filter paper pieces were dried. Ten nymphs of R. sanguineus were placed into each vial and maintained at 27° C. with 80% humidity under a 12L12D light-dark cycle (L: light time, D: dark time). At 48 hours after agrochemical treatment, the numbers of surviving and dead nymphs were counted, and the corrected mortality rate was calculated according to the formula of Math. 4.

Experimental for Ctenocephalides felis: Parasiticidal Test on Ctenocephalides felis
Newly-emerged adults of C. felis were placed into test cages (10 adults per test cage), and the test cages were maintained at 35° C. in an artificial feeding system. At 24 hours after agrochemical treatment, the numbers of surviving and dead adults were counted, and the corrected mortality rate was calculated according to the formula shown below. Corrected mortality rate (%)=100×(Survival rate in a negative control group−Survival rate in a treatment group)/Survival rate in a negative control group [Math.

`CCSc1cc(C2(C#N)CC2)cnc1-c1nc2cc(OC(F)(F)F)ccc2n1C` [Compound 1-83, 2-(5-(1-cyanocyclopropyl)-3-ethylthiopyridin-2-yl)-1-methyl-5-trifluoromethoxybenzimidazole]: the mortality at 500 ppm with Laodelphax striatellus and in the assay on Plutella xylostella was 100% throughout. In addition, the pest or weed control at 500 ppm in the assay with Myzus persicae worked out at 100%.

As for `CCS(=O)(=O)c1cc(C2(C#N)CC2)cnc1-c1nc2cc(OC(F)(F)F)ccc2n1C` [Compound 1-85, 2-(5-(1-cyanocyclopropyl)-3-ethylsulfonyl-pyridin-2-yl)-1-m ethyl-5-trifluoromethoxybenzimidazole], the mortality at 500 ppm in the assay on Laodelphax striatellus and with Plutella xylostella was 100% each time. Moreover, the pest or weed control at 500 ppm in the assay on Myzus persicae turned out to be 100%.

With `CCSc1cc(C2(C#N)CC2)cnc1-c1nc2cc(SC(F)(F)F)ccc2n1C` [Compound 1-6], the mortality at 500 ppm in the assay with Laodelphax striatellus and in the assay on Plutella xylostella was 100% throughout. Besides, in the assay with Myzus persicae, the pest or weed control at 500 ppm is 100%.

For `CC[S+]([O-])c1cc(C2CC2)cnc1-c1nc2cc(SC(F)(F)F)ccc2n1C` (stereo not drawn) [Compound 1-2, 2-(3-ethylsulfinyl-5-cyclopropylpyridin-2-yl)-1-methyl-5-(trifluoromethylthio)benzimidazole], the mortality at 500 ppm in the assay with Laodelphax striatellus and with Plutella xylostella was 100% throughout. Besides, the pest or weed control at 500 ppm with Myzus persicae was determined as 100%.

Consider `CCSc1cc(C2CC2)cnc1-c1nc2cc(SC(F)(F)F)ccc2n1C` [Compound 1-1, 2-(3-ethylthio-5-cyclopropylpyridin-2-yl)-1-methyl-5-(trifluoromethylthio)benzimidazole], for which the mortality at 500 ppm with Laodelphax striatellus and in the assay on Plutella xylostella was 100% throughout. Also, the pest or weed control at 500 ppm in the assay with Myzus persicae was determined as 100%.

As for `CCS(=O)(=O)c1cc(C2CC2)cnc1-c1nc2cc(SC(F)(F)F)ccc2n1C` [Compound 1-3, 2-(3-ethylsulfonyl-5-cyclopropylpyridin-2-yl)-1-methyl-5-(trifluoromethylthio)benzimidazole], the mortality at 500 ppm in the assay on Laodelphax striatellus and in the assay with Plutella xylostella was 100% each time. In addition, the mortality at 50 ppm in the assay on Ctenocephalides felis is at least 90%. For the same molecule, in the assay with Haemonchus contortus, the inhibition at 100 ppm is at least 50%. The pest or weed control at 500 ppm with Myzus persicae was found to be 100%. Besides, the mortality at 100 ppm in the assay with Rhipicephalus sanguineus is at least 90%.

For `CCS(=O)(=O)c1cc(C2CC2)cnc1-c1nc2cc(S(=O)(=O)C(F)(F)F)ccc2n1C` [Compound 1-5, 2-(3-ethylsulfonyl-5-cyclopropylpyridin-2-yl)-1-methyl-5-(trifluoromethylsulfonyl)benzimidazole], the mortality at 500 ppm in the assay on Laodelphax striatellus and in the assay with Plutella xylostella was 100% in each case. The pest or weed control at 500 ppm in the assay on Myzus persicae was found to be 100%.

`CCS(=O)(=O)c1cc(C2CC2)cnc1-c1nc2cc([S+]([O-])C(F)(F)F)ccc2n1C` (stereo not drawn) [Compound 1-4, 2-(3-ethylsulfonyl-5-cyclopropylpyridin-2-yl)-1-methyl-5-(trifluoromethylsulfinyl)benzimidazole]: the mortality at 500 ppm in the assay with Laodelphax striatellus and with Plutella xylostella was 100% each time. For the same molecule, the mortality at 50 ppm in the assay on Ctenocephalides felis was at least 90%. Moreover, the inhibition at 100 ppm in the assay with Haemonchus contortus is at least 50%. For the same molecule, the pest or weed control at 500 ppm in the assay on Myzus persicae amounted to 100%. For the same molecule, the mortality at 100 ppm in the assay on Rhipicephalus sanguineus was at least 90%.

Consider `CCS(=O)(=O)c1cc(C2CC2)cnc1-c1nc2cc(OC(F)(F)F)ccc2n1C` [Compound 1-27, 2-(5-cyclopropyl-3-ethylsulfonyl-pyridin-2-yl)-1-methyl-5-trifluoromethoxybenzimidazole], for which the mortality at 500 ppm with Laodelphax striatellus and in the assay with Plutella xylostella was 100% throughout. Also, the pest or weed control at 500 ppm with Myzus persicae worked out at 100%.
